Results published in patent US10604741B2, “Compositions and methods for enhancing virus replication” (TURNSTONE LIMITED PARTNERSHIP, priority 2013, dated 2020).

What was measured:
VSVΔ51 in 786-0 cells [1] = type: cell-based, human
VSVΔ51 in 786-0 cells [2] = type: cell-based, human; details: 24 hours

Compound	effect on FGF2-induced enhancement of virus replication (VSVΔ51 in 786-0 cells [1])	FGF2-enhancement of virus replication at different MOIs (VSVΔ51 in 786-0 cells [2])
CCN(CC)CCCCNc1ncc2cc(-c3cc(OC)cc(OC)c3)c(NC(=O)NC(C)(C)C)nc2n1 [PD173074]	reduces FGF2-induced enhancement of virus replication	–
FGF2: recombinant human FGF2 protein; amino acid sequence shown in SEQ ID NO: 9	–	independent of the MOIs used
